Measured values: paper PMC3351444, “Molecular Evolution of a Peptide GPCR Ligand Driven by Artificial Neural Networks” (PLoS ONE, 2012)
Where two headings read alike, the source gives them in different places. Square brackets hold non-standard residues; d marks the D form. Ends that are not written are not given here. Peptide text beside a SMILES is read from it.

Legend:
[1] = In vitro peptide stability in human serum (RP-HPLC); conditions: for half-life at 50 µg/mL: human, human serum, 25% (v/v) in RPMI; for t1/2: metabolic stability in human serum
Method: The initial time is recorded, and at known time intervals 50 µL of the reaction solution is removed and added to 100 µL of 6% aqueous trichloroacetic acid (TCA) for precipitation of serum proteins. […] The reaction supernatant is then analyzed using RP-HPLC (Agilent 1200 LC System) on a ZORBAX Eclipse XDB-C18, 4.6×150 mm, 5 µm column (Agilent). […] Fluorescence is detected at an excitation wavelength of 280 nm and emission wavelength of 340 nm. Kinetic analysis was carried out by least-squares analysis of the logarithm of the integration peak area versus time.

human CMKLR1 = target: T1, human CMKLR1 (Homo sapiens, UniProt Q99788); assay: Ca2+ mobilization (CellLux imaging) agonist assay in HEK293A cells expressing CMKLR1 and Gα15; format: cell-based
T1 construct: host or cells: HEK293A (Invitrogen), stably expressing human Gα15
T1 sequence (Q99788 1-373): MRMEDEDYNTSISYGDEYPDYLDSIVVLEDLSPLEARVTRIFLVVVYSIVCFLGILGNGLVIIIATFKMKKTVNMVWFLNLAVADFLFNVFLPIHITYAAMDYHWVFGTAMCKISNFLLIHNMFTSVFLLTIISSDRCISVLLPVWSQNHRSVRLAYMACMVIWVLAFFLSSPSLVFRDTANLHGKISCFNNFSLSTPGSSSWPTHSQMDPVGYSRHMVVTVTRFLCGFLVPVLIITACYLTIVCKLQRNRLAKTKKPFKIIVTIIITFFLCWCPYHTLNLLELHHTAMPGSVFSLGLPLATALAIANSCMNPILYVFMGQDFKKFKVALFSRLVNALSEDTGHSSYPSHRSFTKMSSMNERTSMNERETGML
Method: HEK293A cells (Invitrogen) expressing CMKLR1 and Gα15 were seeded at 5*10^4 cells/well in a poly-D-lysine coated 96-well black well/clear bottom plate (BD Falcon) and cultured overnight. From eighteen to twenty-four hours later, cells were loaded with FLUO4-AM (Invitrogen). Then the cells were washed two times with C1 solution (130 mM NaCl, 5 mM KCl, 10 mM HEPES pH 7.4, 2 mM CaCl2, and 10 mM Glucose). After the final wash, a 100 µL of residual volume remained on the cells. Peptides were dissolved in 10% DMSO to a concentration of 1 mM and were diluted in C1 solution with 0.1 % BSA. They were aliquoted as 2x solutions in 96-well plates and were simultaneously transferred by the robotic system within the imager from the ligand plate to the cell plate. […] Fluorescence data was generated in duplicate and experiments were repeated for at least three times. […] For the calculation of concentration-response curves, signals of two wells receiving the same concentration of test substances were averaged and the fluorescence changes of corresponding buffer C1 wells were subtracted. Signals were normalized to background fluorescence. For the calculation of EC50 values, plots of amplitude versus concentrations were prepared in SigmaPlot 11.

[2] = Ca2+ mobilization, CMKLR1, decimal comma
[3] = Ca2+ mobilization, CMKLR1, decimal comma, NR where no EC50 is given, read-out: EC50
[4] = intracellular calcium mobilization, HEK293 cells expressing CMKLR1, mean of three independent experiments ± SD, read-out: activity: EC50 ±SD

Molecule	half-life at 50 µg/mL [1]	max response (human CMKLR1; [2])	EC50 (human CMKLR1; [3])	EC50 (human CMKLR1; [4])	t1/2 [1]
CC(C)C[C@H](NC(=O)[C@@H](N)Cc1ccc(O)cc1)C(=O)N1CCC[C@H]1C(=O)N[C@H](Cc1c[nH]c2ccccc12)C(=O)N[C@@H](CCC(N)=O)C(=O)N[C@@H](Cc1ccc(O)cc1)C(=O)N[C@@H](C)C(=O)N[C@@H](Cc1ccccc1)C(=O)N[C@H](Cc1ccccc1)C(=O)O [compound 127] (H-YLP[dW]QYAF[dF]-OH; N-terminus assumed)	124 min	1,52 DF/F0	35.6 nM	–	–
YLPGQFQFS-OH [compound 44]	15 min	0,76 DF/F0	9.54 nM	–	–
CC(C)C[C@H](NC(=O)[C@@H](N)Cc1ccc(O)cc1)C(=O)N1CCC[C@H]1C(=O)N[C@@H](Cc1ccc(O)cc1)C(=O)N1CCC[C@H]1C(=O)N[C@@H](Cc1ccc(O)cc1)C(=O)N1CCC[C@@H]1C(=O)N[C@@H](Cc1ccccc1)C(=O)N[C@H](Cc1ccccc1)C(=O)O [compound 147] (H-YLPYPY[dP]F[dF]-OH; N-terminus assumed)	28 min	1,36 DF/F0	207 nM	–	–
CC(C)C[C@H](NC(=O)[C@@H](N)CCC(N)=O)C(=O)N1CCC[C@H]1C(=O)NCC(=O)N[C@@H](CCC(N)=O)C(=O)N[C@@H](Cc1ccccc1)C(=O)N[C@@H](C)C(=O)N[C@H](Cc1ccccc1)C(=O)N[C@@H](Cc1ccccc1)C(=O)O [compound 71] (H-QLPGQFA[dF]F-OH; N-terminus assumed)	31 min	0,66 DF/F0	2460 nM	–	–
CC(C)C[C@H](NC(=O)[C@@H](N)Cc1ccc(O)cc1)C(=O)N1CCC[C@H]1C(=O)N[C@H](C)C(=O)N[C@@H](CCC(N)=O)C(=O)N[C@@H](Cc1ccc(O)cc1)C(=O)N[C@@H](C)C(=O)N[C@@H](Cc1ccccc1)C(=O)N[C@H](CO)C(=O)O [YLPaQYAFs] (H-YLP[dA]QYAF[dS]-OH; N-terminus assumed)	110 ± 26 min	–	–	4.42 ± 3.41 nM	–
CC(C)C[C@H](NC(=O)[C@H](N)Cc1ccccc1)C(=O)N1CCC[C@H]1C(=O)NCC(=O)N[C@@H](CCC(N)=O)C(=O)N[C@@H](Cc1ccc(O)cc1)C(=O)N[C@@H](C)C(=O)N[C@@H](Cc1ccccc1)C(=O)N[C@H](Cc1ccccc1)C(=O)O [compound 83] (H-[dF]LPGQYAF[dF]-OH; N-terminus assumed)	–	1,82 DF/F0	–	–	1157 min
CC(C)C[C@H](NC(=O)CN)C(=O)N[C@@H](CCC(N)=O)C(=O)N[C@H](CCC(N)=O)C(=O)N[C@@H](Cc1ccccc1)C(=O)N[C@@H](Cc1ccc(O)cc1)C(=O)N[C@H](Cc1c[nH]c2ccccc12)C(=O)NCC(=O)N[C@H](Cc1ccccc1)C(=O)O [compound 132] (H-GLQ[dQ]FY[dW]G[dF]-OH; N-terminus assumed)	117 min	1,82 DF/F0	55.7 nM	–	–
C[C@H](NC(=O)[C@H](Cc1ccccc1)NC(=O)[C@H](C)NC(=O)[C@H](Cc1ccccc1)NC(=O)[C@@H](N)CCC(N)=O)C(=O)N[C@@H](Cc1ccccc1)C(=O)N[C@@H](C)C(=O)N[C@@H](Cc1ccccc1)C(=O)N[C@H](CO)C(=O)O [compound 115] (H-QFAFAFAF[dS]-OH; N-terminus assumed)	24 min	1,2 DF/F0	2490 nM	–	–
CC(C)C[C@@H](NC(=O)[C@H](CCCNC(=N)N)NC(=O)[C@@H](N)Cc1ccc(O)cc1)C(=O)NCC(=O)N[C@@H](CCC(N)=O)C(=O)N[C@@H](Cc1ccc(O)cc1)C(=O)N[C@H](Cc1c[nH]c2ccccc12)C(=O)N[C@H](CC(=O)O)C(=O)N[C@H](Cc1ccccc1)C(=O)O [compound 129] (H-YR[dL]GQY[dW][dD][dF]-OH; N-terminus assumed)	32 min	1,1 DF/F0	41.7 nM	–	–
CC(C)C[C@H](NC(=O)[C@@H](N)Cc1ccc(O)cc1)C(=O)N1CCC[C@H]1C(=O)NCC(=O)N[C@@H](CCC(N)=O)C(=O)N[C@@H](Cc1ccc(O)cc1)C(=O)N[C@@H](C)C(=O)N[C@@H](Cc1ccc(O)cc1)C(=O)N[C@H](CO)C(=O)O [compound 87] (H-YLPGQYAY[dS]-OH; N-terminus assumed)	49 min	1,62 DF/F0	27.5 nM	–	–
CC(C)C[C@H](NC(=O)[C@@H]1CCCN1)C(=O)N[C@H](CCC(N)=O)C(=O)N[C@@H](Cc1ccc(O)cc1)C(=O)N1CCC[C@H]1C(=O)N[C@@H](Cc1ccc(O)cc1)C(=O)N[C@H](CS)C(=O)N[C@@H](CC(C)C)C(=O)N[C@H](Cc1ccccc1)C(=O)O [compound 149] (H-PL[dQ]YPY[dC]L[dF]-OH; N-terminus assumed)	30 min	1,51 DF/F0	271 nM	–	–
C[C@H](NC(=O)[C@H](Cc1ccc(O)cc1)NC(=O)[C@H](CCC(N)=O)NC(=O)CNC(=O)[C@@H]1CCCN1C(=O)[C@H](CCCNC(=N)N)NC(=O)[C@@H](N)Cc1ccc(O)cc1)C(=O)N[C@@H](Cc1ccccc1)C(=O)N[C@H](CO)C(=O)O (H-YRPGQYAF[dS]-OH; N-terminus assumed)	21 ± 4 min	–	–	8.62 ± 5.01 nM	–
CC(C)C[C@H](NC(=O)[C@H](Cc1ccccc1)NC(=O)CNC(=O)[C@@H]1CCCN1C(=O)[C@H](CC(C)C)NC(=O)[C@@H](N)Cc1ccccc1)C(=O)N[C@@H](C)C(=O)N[C@@H](CC(C)C)C(=O)N1CCC[C@@H]1C(=O)O [compound 72] (H-FLPGFLAL[dP]-OH; N-terminus assumed)	218 min	0,64 DF/F0	2610 nM	–	–
CC(C)C[C@H](NC(=O)[C@H](N)Cc1ccc(O)cc1)C(=O)N1CCC[C@H]1C(=O)NCC(=O)N[C@@H](CCC(N)=O)C(=O)N[C@@H](Cc1ccc(O)cc1)C(=O)N[C@@H](C)C(=O)N[C@@H](Cc1ccc(O)cc1)C(=O)N[C@@H](CO)C(=O)O [compound 101] (H-[dY]LPGQYAYS-OH; N-terminus assumed)	81 min	1,56 DF/F0	140 nM	–	–
CC(C)C[C@H](NC(=O)[C@@H](N)Cc1ccc(O)cc1)C(=O)N1CCC[C@H]1C(=O)NCC(=O)N[C@@H](CCC(N)=O)C(=O)N[C@@H](Cc1ccc(O)cc1)C(=O)N[C@H](Cc1c[nH]c2ccccc12)C(=O)N1CCC[C@H]1C(=O)N[C@H](Cc1ccccc1)C(=O)O [compound 126] (H-YLPGQY[dW]P[dF]-OH; N-terminus assumed)	47 min	1,33 DF/F0	21 nM	–	–
PLPGQQAFF-OH [compound 79]	84 min	0,6 DF/F0	–	–	–
CC(C)C[C@H](NC(=O)[C@@H](N)Cc1ccc(O)cc1)C(=O)N1CCC[C@H]1C(=O)NCC(=O)N[C@@H](CCC(N)=O)C(=O)N[C@@H](Cc1ccccc1)C(=O)N[C@H](Cc1c[nH]c2ccccc12)C(=O)N[C@@H](Cc1ccccc1)C(=O)N[C@@H](CO)C(=O)O [compound 41] (H-YLPGQF[dW]FS-OH; N-terminus assumed)	45 min	0,94 DF/F0	7.23 nM	–	–
C[C@H](NC(=O)CN)C(=O)N[C@@H](Cc1ccccc1)C(=O)N[C@@H](CCC(N)=O)C(=O)N[C@@H](Cc1ccccc1)C(=O)N[C@H](CO)C(=O)N[C@@H](C)C(=O)N[C@@H](Cc1ccccc1)C(=O)N[C@H](CO)C(=O)O [compound 100] (H-GAFQF[dS]AF[dS]-OH; N-terminus assumed)	71 min	1,69 DF/F0	129 nM	–	–
CC(C)[C@H](NC(=O)[C@H](N)Cc1ccc(O)cc1)C(=O)N1CCC[C@H]1C(=O)NCC(=O)N[C@@H](CCC(N)=O)C(=O)N[C@@H](Cc1ccc(O)cc1)C(=O)N[C@@H](C)C(=O)N[C@@H](Cc1ccccc1)C(=O)N[C@@H](CO)C(=O)O [compound 91] (H-[dY]VPGQYAFS-OH; N-terminus assumed)	151 min	1,58 DF/F0	53.6 nM	–	–
CC(C)C[C@H](NC(=O)[C@H](C)NC(=O)[C@H](Cc1ccc(O)cc1)NC(=O)[C@@H](CCC(N)=O)NC(=O)CNC(=O)[C@@H]1CCCN1C(=O)[C@H](CC(C)C)NC(=O)[C@@H](N)Cc1ccc(O)cc1)C(=O)N[C@H](Cc1ccccc1)C(=O)O [compound 135] (H-YLPG[dQ]YAL[dF]-OH; N-terminus assumed)	40 min	1,48 DF/F0	72.2 nM	–	–
CC(C)C[C@H](NC(=O)[C@H](N)Cc1ccc(O)cc1)C(=O)N1CCC[C@H]1C(=O)N[C@H](CO)C(=O)N[C@@H](CCC(N)=O)C(=O)N[C@@H](Cc1ccc(O)cc1)C(=O)N[C@@H](C)C(=O)N[C@@H](Cc1ccccc1)C(=O)N[C@H](CO)C(=O)O [compound 121] (H-[dY]LP[dS]QYAF[dS]-OH; N-terminus assumed)	–	1,6 DF/F0	–	–	1408 min
